Where two headings read alike, the source gives them in different places.

These results are taken from patent US5977174A, “Cholinergic compositions and uses thereof” (Neuromedica, Inc., priority 1997, dated 1999).

One data set in a line: Solubility. It counts as physicochemical. To be noted: for Solubility in solvents: organic solvents, water; for solubility: read-out: Solubility: amount dissolved in 1.0 mL.
The nature of another data set: Stability. It counts as physicochemical. The procedure: The compound should be kept at -20° C. under Argon.
The conditions of data set [1]: animal models, clinical trials; cited from earlier work.
For data set [2] the following is noted: models of aging; cited from earlier work.
For data set [3] the following is noted: cited from earlier work.
The test system of data set [4] is locomotor activity of mice. As to the kind of experiment: Locomotor activity study (dose-response of DHA-choline-induced locomotor depression). Particulars: 20 min pretreatment. It counts as in vivo, male Swiss-Webster mice (Hsd:ND4). As for the experimental part:
A dose-response study of DHA-choline-induced locomotor depression was conducted using 40 Digiscan locomotor activity testing chambers (40.5×40.5×30.5 cm) housed in sets of two, within sound attenuating chambers. A panel of infrared beams (16 beams) and corresponding photo detectors were located in the horizontal direction along the sides of each activity chamber. A 7.5W incandescent light above each chamber provided dim illumination. Fans provided an 80-dB ambient noise level within the chamber. Separate groups of 8 non-habituated male Swiss-Webster mice (Hsd:ND4, aged 2-3 mo.) were injected via the intraperitoneal route (i.p.) with either vehicle or DHA-choline (0.5, 2.5, 5, 10, 20 or 40 mg/kg), 20 minutes prior to locomotor activity testing. In all studies, the total distance (cm traversed in the horizontal plane) was measured for 2 hours within 10 min periods.
The figures show the dose response data for the locomotor activity (Stewart et al., Psychopharmacol 60:281, 1979) of mice injected with different doses of the compound. The figures show average distance per 10 min as a function of time (FIG. 1) and dose (FIG. 2) 20 minutes following DHA-choline pretreatment. The period 0-30 min was selected for analysis of dose-response data because this is the time period in which DHA-choline produced maximal effects. […]

The test system of another data set is rat brain. Kind of data set: Infarct volume after MCA occlusion of rat brain (triphenyltetrazolium chloride staining). To be noted: 50 mg/kg i.p. at three hours after initiation of the stroke event; n=5. It counts as in vivo. The procedure:
Two sets of experiments were carried out. In the first set, rats were administered with 50 mg/kg of DHA-choline i.p. at 30 minutes prior to occlusion of the middle cerebral artery of the left side of the brain using a standard highly reproducible animal model of stroke (Karpiak et al., J. Neurosci Res.30:512-520, 1991). Occlusion of the middle cerebral artery inhibits blood flow to a major portion of the left cortical and subcortical regions of the brain. After a two hour period, the occluded blood vessel was opened to allow reperfusion of the brain, and anesthesia was terminated. Each animal received additional doses of 50 mg/kg of DHA-choline 24 and 48 hours later.
The animals were sacrificed, perfused with formalin fixative, brains were sliced into seven 2 mm thick coronal sections, and stained with triphenyltetrazolium chloride (Watson et al., J. Neurosci. Methods 53:203-208, 1994). In this test, tissue that contains intact mitochondria stains red, whereas dead tissue with damaged mitochondria picks up no stain and remains white. Each unstained area on the left side of a section was measured and compared to the total area of the control non-occluded right side of the same section of the brain. The area of damaged (white) brain tissue cells was calculated as a percent of the intact right side of a section. […] (n=5 per group.) […]

In the case of `CC/C=C\C/C=C\C/C=C\C/C=C\C/C=C\C/C=C\CCC(=O)OCCN(C)C` [2-dimethylaminoethyl docosahexaenoate], the Solubility in solvents entry in the data set “Solubility” is listed as “soluble in EtOAc, Et2 O, CH2 C2, CHCl3, EtOH insoluble in H2 O”. Also, the “Stability in air (appearance)” value in the data set “Stability” (exposed in the air for several days) is listed as “turns dark when exposed in the air for several days”.

As to `C[N+](C)(C)CCOP(=O)(O)OP(=O)([O-])OC[C@H]1O[C@@H](n2ccc(N)nc2=O)[C@H](O)[C@@H]1O` [CDP-choline, Cytidine 5'-diphosphocholine], the neuroprotective effect entry in data set [1] is listed as “neuroprotective effect”. Moreover, the “effect on memory and learning deficits” value in data set [2] is “improves memory and learning deficits”.

As for `CC/C=C\C/C=C\C/C=C\C/C=C\C/C=C\C/C=C\CCC(=O)O` [DHA, cis-docosahexaenoic acid], in data set [3], the “stability in the presence of oxygen” value is “can be unstable in the presence of oxygen”.

One may read the solubility as the dissolved amount per volume that the medium holds. `CC/C=C\C/C=C\C/C=C\C/C=C\C/C=C\C/C=C\CCC(=O)OCC[N+](C)(C)C` [DHA-choline, Docosahexaenoyl Choline Iodide]: the ED50 in data set [4] (Mus musculus, ip, 0-30 min period, maximal depressant activity = 0 cm/30 min, read-out: ID50 dose producing 1/2 maximal depressant activity (locomotor activity)) was 12.9 mg/kg. For the same molecule, the “time period of maximal effects” value in data set [4] (i.p.) was in the range of 0 to 30 min. The “infarct volume relative to vehicle controls” value in the data set on rat brain is “approximately 50%”. The solubility in “Solubility” (1.0 mL ascorbic acid in saline with 0.02 mL detergent) is 5500 µg/mL; in “Solubility” (10% albumin saline with detergent, 1.0 mL 10% albumin in saline with 0.01 mL detergent) it was 7800 µg/mL. In addition, in the data set “Solubility”, the Solubility in solvents result was “soluble in CH2 Cl2, CHCl3, EtOAc, EtOH insoluble in hexanes, Et2 O”. Moreover, the “Stability in air (1H NMR analysis)” value in the data set “Stability” (exposed in the air for 5 days) is “had not decomposed”. Further, the “Stability on long exposure to air” value in the data set “Stability” (exposed in the air for too long) is on record as “will decompose”.
